Experimental findings from US20210121438A1, “METHODS FOR TREATING OR PREVENTING CONFORMATION DISEASES AND METHODS FOR DRUG SCREENING” (GARAGE BRAIN SCIENCE CO., LTD, priority 2018, published 2021) are described below.

Structures are written as SMILES.

Assay [1] has as its system progeria-expressing cells. The assay can be described thus: Nuclear shape in progeria-expressing cells (anti-lamin A/C immunostaining). The conditions noted are these: progeria-expressing cells (HGPS model). Type of assay: cell-based.
The test system of assay [2] is TDP-43-mediated CFTR exon 9 skipping. The assay can be described thus: Alternative splicing assay (in vivo splicing, CFTR minigene). Type of assay: cell-based. On the procedure: Alternative Splicing Assay: TDP-43-mediated CFTR exon 9 skipping assays were performed as previously described. Briefly, cells were cotransfected with TDP-43 plasmid, hCF-(TG)13(T)5 minigenes and the indicated plasmids, including VCP/p97 wt, VCP/p97 QQ, HSPB1, lamin A or progeria, or HSPB1 siRNA. Total RNA of transfectanted cells was isolated by TRIzol reagent (Invitrogen), and RT-PCR was carried out by Superscript III (Invitrogen) using specific primers to amplify exons 8-10 of CFTR according to the manufacturer's protocol. The relative amounts of cDNA were validated on 1.3% agarose gels. […]

Assay [3] concerns NSC34 cells expressing SMNA7. The assay can be described thus: Axon/neurite length of NSC34 motor neurons expressing SMNA7. As to conditions: NSC34 cells expressing SMNA7, baicalein 50 μM. Type of assay: cell-based. The text has this: (§1) We investigate whether baicalein can act as a pharmacological chaperone to refold misfolded SMNA7 into a functional prion-like domain, as shown in FIG. 8 (FIG. 10a). […] PFN1 is a known SMN interactor in the cytosol. We further examined whether baicalein attenuated the degradation of the SMNA7 protein. […] We found baicalein increased the length of axons from NSC34 cells expressing SMNA7 by approximately 2-fold (FIG. 10g).
We increased the amount of functional prion-like domains by overexpressing the TDP-43 prion-like domain (TDP-43-PLD) in NSC34 motor neuron cells expressing the SMNA7 proteins to confirm that the reduced level of the functional prion-like conformer caused axon degeneration in SMNΔ7-expressing neurons. The TDP-43-PLD is expected to adopt a common, structurally similar β sheet to compensate for the prion-like function of SMN through hetero-polymerization. […] Thus, the level of the prion-like conformer is critical for motor neuron survival, and other functionally unrelated prion-like proteins can compensate for the function of the defective protein.

A further assay concerns the target T1, SMNA7 protein (Homo sapiens, UniProt Q16637).
T1 construct: expressed in transfected cells
The assay can be described thus: SMNA7 protein degradation (Western blotting). The format is cell-based. As to conditions: baicalein.
Description: as §1
Background: In western blotting, separated proteins are transferred to a membrane and probed.

Assay [4] has as its target T2, full-length TDP-43 recombinant protein (Homo sapiens, UniProt Q13148).
T2 construct: Three-micromolar full-length TDP-43 recombinant protein (GenWay); purchased GenWay
The assay can be described thus: In vitro analysis of TDP-43 fiber formation (negative staining electron microscopy). Type of assay: biochemical.

Assay [5] deals with SMNA7 aggregates in 293T cells. The assay can be described thus: SMNA7 aggregate formation in 293T cells. The format is cell-based.
Description: as §1

Assay [6] deals with TDP-43 in cells expressing progeria proteins. The assay can be described thus: Localization of TDP-43 in progeria-expressing cells (immunofluorescence). The format is cell-based. On the procedure:
Immunohistochemistry: Fluorescence staining was performed as described previously (Wang et al., 2012). Cells were transfected with or without plasmids or siRNAs and grown for 24 to 48 hr. Cells were fixed with 3.7% paraformaldehyde in PBS at RT for 15 min and then permeabilized with 0.1% Triton X-100. The fixed cells were incubated with primary antibodies at RT for 2 hr followed by incubation with Cy2- or Cy3-labeled secondary antibodies (Molecular Probes). Slides were mounted using Vectashield DAPI H-1200 (Vector). Cellular fluorescence images were collected using an LSM710 META laser-scanning confocal microscope (Zeiss).
To further characterize whether TDP-43 proteins are present in the nuclear matrix, consisting of proteins such as lamina A/C, we double-stained TDP-43 (green) with lamina A/C (red) (FIG. 7). The TDP-43 fibrogranular framework was partially connected to lamina A/C (FIG. 7a, the arrow indicates the colocalization area). As defective lamin A can cause progeria and the a premature aging disorder HGPS, overexpression of progeria proteins is considered a cell model of aging and allowed us to explore the mechanistic link between TDP-43 and aging or a lamin A pathology. We thus overexpressed progeria proteins and examined TDP-43 localization, the efficiency of TDP-43PLD-mediated exon 9 skipping and TDP-43 polymers. […]

In another assay the test system is SMNA7-expressing cells. The assay can be described thus: Cell viability assay of SMNA7-expressing cells. Type of assay: cell-based. As to conditions: 50 μM baicalein.
Description: as §1

Another assay has as its system SMNA7 cells. The assay can be described thus: Morphology (neurite-like structure) of SMNA7 cells. The format is cell-based. As to conditions: baicalein.
Description: as §1

The target of the next assay is T3, PFN1 and SMNA7 (Homo sapiens, UniProt Q16637).
T3 construct: expressed in transfected cells
The assay can be described thus: Co-immunoprecipitation of PFN1 and SMNA7. The format is cell-based. As to conditions: in the presence of baicalein.
Description: as §1

Another assay addresses T4, TDP-43 polymers (Homo sapiens, UniProt Q13148).
T4 construct: endogenous in cells; host or cells: 293T
The assay can be described thus: Western blotting of TDP-43 polymers in nuclear, cytosolic and urea fractions. The format is cell-based. The protocol: Solubility Assay of TDP-43 and p53: Cells with or without transfection of TDP-43-FL or TDP-43-Q303P were lysed with RIPA buffer (50 mM Tris, 150 mM NaCl, 1 mM EDTA, 1% NP-40, pH 7.4), and the lysate was further fractionated by centrifugation at 16,000 g for 5 min at 4° C. The insoluble pellets were then dissolved in 8 M urea/50 mM Tris (pH 8.0). The proteins were identified by Western blotting using a polyclonal TDP-43 antibody or a monoclonal p53 antibody.
TDP-43 proteinopathies in FTLD/ALS with the VCP/97 mutation R155H have been characterized. The VCP/97 mutation R155H alters the functions of VCP/97, redistributes TDP-43 to the cytosol, and leads to form-insoluble aggregates of TDP-43.

T4 sequence (Q13148 whole entry): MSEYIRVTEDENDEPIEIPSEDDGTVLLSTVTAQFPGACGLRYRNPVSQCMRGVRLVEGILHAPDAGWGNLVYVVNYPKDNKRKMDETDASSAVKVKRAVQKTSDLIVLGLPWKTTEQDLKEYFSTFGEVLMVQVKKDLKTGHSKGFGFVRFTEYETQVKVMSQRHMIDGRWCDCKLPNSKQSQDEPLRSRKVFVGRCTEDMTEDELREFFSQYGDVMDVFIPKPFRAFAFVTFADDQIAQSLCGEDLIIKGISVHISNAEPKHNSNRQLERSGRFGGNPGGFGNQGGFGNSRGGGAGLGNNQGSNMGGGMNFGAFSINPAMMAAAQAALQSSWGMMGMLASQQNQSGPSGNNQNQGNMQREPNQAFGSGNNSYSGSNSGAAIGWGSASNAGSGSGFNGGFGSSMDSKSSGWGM
T2 sequence (Q13148 whole entry): as above
T3 sequence (Q16637 1-282 isoform Q16637-3): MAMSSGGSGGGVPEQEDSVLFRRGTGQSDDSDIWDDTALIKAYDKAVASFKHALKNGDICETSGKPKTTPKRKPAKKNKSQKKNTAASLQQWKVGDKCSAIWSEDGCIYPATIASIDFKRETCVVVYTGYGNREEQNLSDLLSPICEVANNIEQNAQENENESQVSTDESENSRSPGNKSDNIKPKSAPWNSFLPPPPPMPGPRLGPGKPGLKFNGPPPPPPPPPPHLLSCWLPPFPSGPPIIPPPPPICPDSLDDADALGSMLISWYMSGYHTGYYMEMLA
T1 sequence (Q16637 1-282 isoform Q16637-3): as above

In the case of `O=c1cc(-c2ccccc2)oc2cc(O)c(O)c(O)c12` [baicalein], the nuclear shape defects result in [1] is given as “corrected nuclear shape defects in HGPS”. Also, in [2] (VCP/p97-QQ-expressing cells), the “CFTR exon 9 skipping” value is recorded as “increased CFTR exon 9 skipping”. The “failure of TDP-43 to promote CFTR exon 9 skipping” value in assay [2] (cells co-transfected with TDP-43 and VCP/p97 R155H mutant) is reported as “corrected”. In assay [2] (cells expressing VCP/p97-QQ), the “dysfunction caused by FTLD/ALS-linked sporadic mutation R361S of TDP-43” value was “rescued dysfunction” and the “dysfunction of proline substitution mutant GFP-TDP-43-Q303P” value was “rescued dysfunction”. In addition, the “TDP-43 dysfunction (CFTR exon 9 skipping)” value in assay [2] (cells expressing progeria) is reported as “rescued TDP-43 dysfunction caused by progeria in a dose-dependent manner”. Moreover, the “restoring ratio of exon skipping” value in assay [2] (cells expressing progeria, baicalein 10 μm) is 1.31. Also, in assay [2] (cells expressing progeria, baicalein 50 μm), the “restoring ratio of exon skipping” value stood at 1.91. For the same compound, the “TDP-43-mediated CFTR exon 9 skipping” value in assay [2] (cells treated with only baicalein, TDP-43 overexpressed) is on record as “enhanced ability to promote the TDP-43-mediated CFTR exon 9 skipping in a dose-dependent manner”. For the same compound, the “exon skipping of CFTR” value in assay [2] (without co-overexpressing TDP-43 proteins) is on record as “no effect”. The “increase of length of axons” value in assay [3] is recorded as “approximately 2 fold”. Also, the SMNA7 degradation entry at SMNA7 protein was “significantly reduced SMNA7 degradation”. Moreover, the “length of baicalein-inducing TDP-43 polymers” value in assay [4] (3 μM TDP-43 with 3 μM baicalein, RT, agitation, 30-90 min, fibers without compound 3 to 10 μm) is 0.15-0.9 μm. In addition, the “remodeling of TDP-43 fibers, oligomers or natively unfolded monomers” value in assay [4] (equimolar baicalein, time-dependent) is given as “efficiently remodeled into ordered TDP-43 polymers”. Moreover, the “formation of SMNA7 aggregates” value in assay [5] is recorded as “decreased the formation of SMNA7 aggregates in 293T cells in a dose-dependent manner”. Also, the “nuclear localization of TDP-43” value in assay [6] was “significantly induced the retention of nuclear TDP-43”. The “increase of viability of SMNA7 cells” value with SMNA7-expressing cells was “approximately 2 fold”. The “neurite-like structure of SMNA7 cells” value with SMNA7 cells is recorded as “increased the neurite-like structure of SMNA7 cells”. Further, the “interactions between PFN1 and SMNA7” value at PFN1 and SMNA7 is on record as “significantly increased”. The “TDP-43 polymers in nuclear fraction” value at TDP-43 polymers (293T cells, 0, 25 or 50 μM baicalein) was “compensatory increase in the nuclear fraction”. Further, the TDP-43 polymers result at TDP-43 polymers (baicalein-treated VCP/p97 R155H cells) is given as “increased TDP-43 polymers”.
